The text below walks through data of patent US11691986B2, “PTEFB inhibiting macrocyclic compounds” (Bayer Aktiengesellschaft, priority 2017, dated 2023).

The term Kd denotes the concentration at which binding is half-saturated.

The structures appear in SMILES notation. “And” between values parts separate entries of the source, which are not always exact repeats. Equal entries are not always repeated.

In experiment [1] the test system is A2780 cells. The experiment is described as follows: Proliferation assay, A2780 (Cell Titre-Glo). Particulars: Homo sapiens; A2780, 72-hour exposure; read-out: Inhibition of A2780 cell proliferation IC50. It counts as cell-based. The protocol: A2780 human ovarian carcinoma cells (ECACC #93112519) and non-adherent MOLM-13 human acute myeloid leukemia cells (DSMZ ACC 554) were seeded at a density of 3,000 cell/well (A2780) or 5,000 cells/well (MOLM-13) in a 96-well multititer plate in 150 μL of growth medium supplemented 10% fetal calf serum. After 24 hours, cell viability of one plate (zero-point plate) was determined with the Cell Titre-Glo Luminescent Cell Viability Assay (Promega), while the medium of the other plates was supplemented with the test substances in various concentrations (0 μM, as well as in the range of 0.0001-10 μM; the final concentration of the solvent dimethyl sulfoxide was adjusted to 0.1%) using a Hewlett-Packard HP D300 Digital Dispenser. Cell viability was assessed after 72-hour exposure with the Cell Titre-Glo Luminescent Cell Viability Assay (Promega). IC50 values (inhibitory concentration at 50% of maximal effect) were determined by means of a 4 parameter fit on measurement data which were normalized to vehicle (DMSO) treated cells (=100%) and measurement readings taken immediately before compound exposure (=0%).

The target in experiment [2] is T1, CDK9/CycT1 (Homo sapiens, UniProt P50750).
T1 construct: Recombinant full-length His-tagged human CDK9 and CycT1; His; purchased Life Technologies PV4131; host or cells: insect cells
The experiment is described as follows: CDK9/CycT1 high ATP kinase assay (TR-FRET). It is filed as biochemical. The conditions noted are these: 2 mM ATP; for IC50: Method 1b; for Selectivity high ATP CDK9 over high ATP CDK2: IC50 (high ATP CDK2)/IC50 (high ATP CDK9): minimal values where CDK9 IC50 is at the assay limit of about 1-2 nM. The protocol:
1b. CDK9/CycT1 High ATP Kinase Assay
CDK9/CycT1-inhibitory activity of compounds of the present invention at a high ATP concentration after preincubation of enzyme and test compounds was quantified employing the CDK9/CycT1 TR-FRET assay as described in the following paragraphs.
Recombinant full-length His-tagged human CDK9 and CycT1, expressed in insect cells and purified by Ni-NTA affinity chromatography, were purchased from Life Technologies (Cat. No PV4131). As substrate for the kinase reaction biotinylated peptide biotin-Ttds-YISPLKSPYKISEG (C-terminus in amide form) was used which can be purchased e.g. form the company JERINI peptide technologies (Berlin, Germany).
(§1) For the assay 50 nl of a 100 fold concentrated solution of the test compound in DMSO was pipetted into either a black low volume 384 well microtiter plate or a black 1536 well microtiter plate (both Greiner Bio-One, Frickenhausen, Germany), 2 μl of a solution of CDK9/CycT1 in aqueous assay buffer [50 mM Tris/HCl pH 8.0, 10 mM MgCl2, 1.0 mM dithiothreitol, 0.1 mM sodium ortho-vanadate, 0.01% (v/v) Nonidet-P40 (Sigma)] were added and the mixture was incubated for 15 min at 22° C. to allow pre-binding of the test compounds to the enzyme before the start of the kinase reaction. […] The concentration of CDK9/CycT1 was adjusted depending of the activity of the enzyme lot and was chosen appropriate to have the assay in the linear range, typical concentrations were in the range of 0.5 μg/ml. The reaction was stopped by the addition of 3 μl of a solution of TR-FRET detection reagents (0.33 μM streptavidine-XL665 [Cisbio Bioassays, Codolet, France] and 1.67 nM anti-RB(pSer807/pSer811)-antibody from BD Pharmingen [#558389] and 2 nM LANCE EU-W1024 labeled anti-mouse IgG antibody [Perkin-Elmer, product no. AD0077]) in an aqueous EDTA-solution (167 mM EDTA, 0.2% (w/v) bovine serum albumin in 100 mM HEPES pH 7.5).
(§2) The resulting mixture was incubated 1 h at 22° C. to allow the formation of complex between the phosphorylated biotinylated peptide and the detection reagents. Subsequently the amount of phosphorylated substrate was evaluated by measurement of the resonance energy transfer from the Eu-chelate to the streptavidine-XL. Therefore, the fluorescence emissions at 620 nm and 665 nm after excitation at 350 nm was measured in a TR-FRET reader, e.g. a Pherastar (BMG Labtechnologies, Offenburg, Germany) or a Viewlux (Perkin-Elmer). The ratio of the emissions at 665 nm and at […] was taken as the measure for the amount of phosphorylated substrate. The data were normalised (enzyme reaction without inhibitor=0% inhibition, all other assay components but no enzyme=100% inhibition).
Background: In TR-FRET formats the signal depends on donor and acceptor labels being close together.

Experiment [3] deals with T2, CDK2/CycE (Homo sapiens, UniProt P24941).
T2 construct: GST; purchased ProQinase GmbH (Freiburg, Germany); host or cells: insect cells (Sf9)
The experiment is described as follows: CDK2/CycE high ATP kinase assay (TR-FRET). It is filed as biochemical. Particulars: 2 mM ATP, Method 2b. On the procedure:
2b. CDK2/CycE High ATP Kinase Assay
CDK2/CycE-inhibitory activity of compounds of the present invention at 2 mM adenosine-tri-phosphate (ATP) was quantified employing the CDK2/CycE TR-FRET (TR-FRET=Time Resolved Fluorescence Energy Transfer) assay as described in the following paragraphs.
Recombinant fusion proteins of GST and human CDK2 and of GST and human CycE, expressed in insect cells (Sf9) and purified by Glutathion-Sepharose affinity chromatography, were purchase from ProQinase GmbH (Freiburg, Germany). As substrate for the kinase reaction biotinylated peptide biotin-Ttds-YISPLKSPYKISEG (C-terminus in amid form) was used which can be purchased e.g. form the company JERINI peptide technologies (Berlin, Germany).
as §1, with “CDK2/CycE” for “CDK9/CycT1”, “about 10 ng/ml.” for “in the range of 0.5 μg/ml.”, “(0.333” for “(0.33”, “AD0077, as an alternative a Terbium-cryptate-labeled anti-mouse IgG antibody from Cisbio Bioassays can be used])” for “AD0077])”
as §2

Experiment [4] has as its target T3, human PTEFb (CDK9/Cyclin T1) (Homo sapiens, UniProt P50750).
T3 construct: purchased ProQinase, Freiburg, Germany
The experiment is described as follows: Surface Plasmon Resonance PTEFb. It counts as binding. Particulars: SPR, 37° C.; for Target residence time: 1/koff; for Kd: * = arithmetic mean of more than one value, read-out: Equilibrium dissociation constant KD. From the text: 8. Surface Plasmon Resonance PTEFb
The ability of the compounds according to the invention to bind human PTEFb may be determined using surface plasmon resonance (SPR). KD values and koff values may be measured using a Biacore® T200 instrument (GE Healthcare, Uppsala, Sweden).
For SPR measurements, recombinant human PTEFb (CDK9/Cyclin T1 recombinant human active protein kinase purchased from ProQinase, Freiburg, Germany) is immobilized using standard amine coupling (Johnsson B et al, Anal Biochem. 1991 Nov. 1; 198(2):268-77). Briefly, carboxymethylated dextran biosensor chips (CM7, GE Healthcare) are activated with N-ethyl-N′-(3-dimethylaminopropyl)-carbodiimide hydrochloride (EDC) and N-hydroxysuccinimide (NHS) according to the supplier's instructions. Human PTEFb is diluted in 1×HBS-EP+(GE Healthcare) and injected on the activated chip surface. Subsequently, a 1:1 solution of 1 M ethanolamine-HCl (GE Healthcare) and 1×HBS-EP is injected to block unreacted groups, resulting in approximately 4000 response units (RU) of immobilized protein. A reference surface is generated by treatment with NHS-EDC and ethanolamine-HCl. Compounds are dissolved in 100% dimethylsulfoxide (DMSO, Sigma-Aldrich, Germany) to a concentration of 10 mM and subsequently diluted in running buffer (1×HBS-EP+pH 7.4 [generated from HBS-EP+Buffer 10×(GE Healthcare): 0.1 M HEPES, 1.5 M NaCl, 30 mM EDTA and 0.5% v/v Surfactant P20], 1% v/v DMSO). For kinetic measurements, serial dilutions of compound (0.078 nM up to 25 nM) are injected over immobilized protein. Binding kinetics is measured at 37° C. with a flow rate of 100 μl/min in running buffer. Compound concentrations are injected for 70 s followed by a dissociation time of 1100 s. The resulting sensorgrams are double-referenced against the reference surface as well as against blank injections.
The double-referenced sensorgrams are fit to a simple reversible Langmuir 1:1 reaction mechanism as implemented in the Biacore® T200 evaluation software 2.0 (GE Healthcare). In cases were full compound dissociation has not occurred at the end of the dissociation phase, the Rmax parameter (response at saturation) is fit as local variable. In all other cases, Rmax is fit as global variable.

Experiment [5] concerns bronchospasms. The conditions noted are these: in vivo; cited from earlier work.

T1 sequence (P50750 whole entry): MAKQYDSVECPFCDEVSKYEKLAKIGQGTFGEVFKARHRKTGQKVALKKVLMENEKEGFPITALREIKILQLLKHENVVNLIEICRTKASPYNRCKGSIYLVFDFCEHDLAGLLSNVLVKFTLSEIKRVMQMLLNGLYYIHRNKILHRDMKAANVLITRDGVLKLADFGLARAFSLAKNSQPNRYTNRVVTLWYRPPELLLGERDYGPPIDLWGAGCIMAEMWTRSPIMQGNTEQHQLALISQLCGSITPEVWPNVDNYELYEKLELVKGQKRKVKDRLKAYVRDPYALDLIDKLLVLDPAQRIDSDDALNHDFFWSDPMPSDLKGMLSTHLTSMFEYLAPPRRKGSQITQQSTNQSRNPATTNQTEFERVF
T1 sequence (O60563 whole entry partner): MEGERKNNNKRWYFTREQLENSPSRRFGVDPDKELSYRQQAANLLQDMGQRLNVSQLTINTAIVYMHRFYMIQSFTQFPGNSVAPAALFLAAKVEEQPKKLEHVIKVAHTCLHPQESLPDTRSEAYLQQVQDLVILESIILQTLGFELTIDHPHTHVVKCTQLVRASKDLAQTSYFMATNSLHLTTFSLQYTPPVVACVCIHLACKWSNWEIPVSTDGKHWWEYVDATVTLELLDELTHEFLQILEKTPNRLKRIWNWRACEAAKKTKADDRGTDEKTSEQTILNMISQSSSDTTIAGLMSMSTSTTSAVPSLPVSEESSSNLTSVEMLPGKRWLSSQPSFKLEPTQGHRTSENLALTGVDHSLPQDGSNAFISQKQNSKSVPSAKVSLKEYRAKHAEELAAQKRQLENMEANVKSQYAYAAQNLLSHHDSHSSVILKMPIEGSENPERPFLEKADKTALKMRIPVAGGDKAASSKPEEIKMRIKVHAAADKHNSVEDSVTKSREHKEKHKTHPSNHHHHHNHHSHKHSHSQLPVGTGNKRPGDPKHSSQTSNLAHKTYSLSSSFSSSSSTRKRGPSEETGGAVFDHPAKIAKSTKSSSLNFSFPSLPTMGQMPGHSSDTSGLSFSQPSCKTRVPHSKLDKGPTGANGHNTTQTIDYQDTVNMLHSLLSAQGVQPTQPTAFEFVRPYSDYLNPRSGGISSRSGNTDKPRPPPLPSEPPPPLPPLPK
T3 sequence (P50750 whole entry): as the sequence (P50750 whole entry) above
T3 sequence (O60563 whole entry partner): as the sequence (O60563 whole entry partner) above

On to `CC(C)(C)OC(=O)N=S(C)(=O)Cc1cc2cc(c1)OCCCCCNc1cc(ccc1F)-c1nc(ncc1F)N2` (racemic) [Example 4, (rac)-tert-butyl [{[3,21-difluoro-13-oxa-5,7,19,26-tetraazatetracyclo[18.3.1.1^2,6.1^8,12]hexacosa-1(24),2(26),3,5,8(25),9,11,20,22-nonaen-10-yl]methyl}(methyl)oxido-λ^6-sulfanylidene]carbamate], for which the results for the IC50 in experiment [1], in experiment [2] and in experiment [3] were 31 nM, 1.4 nM and 3670 nM, respectively. In addition, in experiment [2], the “Selectivity high ATP CDK9 over high ATP CDK2: IC50 (high ATP CDK2)/IC50 (high ATP CDK9)” value (shortened to “Selectivity high ATP CDK9”) worked out at 2740.
The matching figures for `CS(=N)(=O)Cc1cc2cc(c1)OCCCCCNc1cc(ccc1F)-c1nc(ncc1F)N2` (racemic) [Example 5, (rac)-3,21-difluoro-10-[(S-methylsulfonimidoyl)methyl]-13-oxa-5,7,19,26-tetraazatetracyclo[18.3.1.1^2,6.1^8,12]hexacosa-1(24),2(26),3,5,8(25),9,11,20,22-nonaene]: 3.4 nM, 1.6 nM, 357 nM and 216.
For `CS(=N)(=O)Cc1cc2nc(c1)OCCCCNc1cc(ccc1F)-c1cc(ncc1F)N2` (racemic) [Example 6, (rac)-3,20-difluoro-10-[(S-methylsulfonimidoyl)methyl]-13-oxa-5,7,18,24-tetraazatetracyclo[17.3.1.1^2,6.1^8,12]pentacosa-1(23),2(25),3,5,8(24),9,11,19,21-nonaene], in that order: 6.7 nM, 4 nM, 25 nM and 6.3.
As for `CSCc1cc2cc(c1)OC(C)CCCNc1cc(ccc1F)-c1nc(ncc1F)N2` (racemic) [Example 7, (rac)-3,20-difluoro-14-methyl-10-[(methylsulfanyl)methyl]-13-oxa-5,7,18,25-tetraazatetracyclo[17.3.1.1^2,6.1^8,12]pentacosa-1(23),2(25),3,5,8(24),9,11,19,21-nonaene], the IC50 in experiment [1] turned out to be 71 nM; in experiment [2], 3.9 nM; in experiment [3], 2980 nM. Moreover, in experiment [2], the “Selectivity high ATP CDK9” value turned out to be 762.
Molecule `CS(=N)(=O)Cc1cc2cc(c1)OCCCCNc1cc(ccc1F)-c1nc(ncc1F)N2` (single isomer, unassigned) [Example 9, 3,20-difluoro-10-[(S-methylsulfonimidoyl)methyl]-13-oxa-5,7,18,25-tetraazatetracyclo[17.3.1.1^2,6.1^8,12]pentacosa-1(23),2(25),3,5,8(24),9,11,19,21-nonaene] returned a Target residence time in experiment [4] (* = arithmetic mean) of over 208 min. The dissociation constant Kd in experiment [4] is 0.046 nM and 0.022 nM and 0.015 nM and 0.062 nM and 0.11 nM and 0.031 nM and 0.07 nM and 0.054 nM. In experiment [2], the IC50 came out at 2.3 nM and the “Selectivity high ATP CDK9” value is reported as 37. In experiment [3], this molecule showed an IC50 of 85 nM.
Take `CS(=N)(=O)Cc1cc2cc(c1)OCCCCNc1cc(ccc1F)-c1nc(ncc1F)N2` (single isomer, unassigned) [Example 10, 3,20-difluoro-10-[(S-methylsulfonimidoyl)methyl]-13-oxa-5,7,18,25-tetraazatetracyclo[17.3.1.1^2,6.1^8,12]pentacosa-1(23),2(25),3,5,8(24),9,11,19,21-nonaene]: in experiment [4] (* = arithmetic mean), the Target residence time is recorded as 37* min. The dissociation constant Kd in experiment [4] was determined as 0.15 nM. Also, the “Dissociation rate constant koff” value in experiment [4] (* = arithmetic mean, < = below what is resolvable) is given as 4.5E−4* 1/s. In addition, the IC50 was found to be 1.6 nM in experiment [2] and 130 nM in experiment [3]. Moreover, the “Selectivity high ATP CDK9” value in experiment [2] stood at 79.
As to `C[N+]1(C)[C@@H]2C[C@@H](OC(=O)C(O)(c3cccs3)c3cccs3)C[C@H]1[C@@H]1O[C@@H]12` [tiotropium], in experiment [5], the “protection against bronchospasms (duration)” value is listed as “more than 6 hours”.
